Molecules are shown by their SMILES. Activity calls are given as the source filed them. No cut-off for these calls is given here.

For test [1], the system named is Nucleic Acid. The test can be described thus: Induction of G-quadruplex stabilization in G4C oligonucleotide assessed as change in DNA melting temperature at [compound/G4C ratio = 4] in pH 7.4 10 mM Tris-HCl, 1 mM EDTA buffer by CD spectroscopy. The class given is nucleic-acid assay.
The subject of test [2] is Nucleic Acid. The test can be described thus: Binding affinity to human telomeric G-quadruplex sequence by surface plasmon resonance spectroscopy. The class given is nucleic-acid assay.
In test [3] the test system is Nucleic Acid. The test can be described thus: Induction of G-quadruplex stabilization in G4C oligonucleotide assessed as change in DNA melting temperature at [compound/G4C ratio = 5] in pH 7.4 10 mM Tris-HCl, 1 mM EDTA buffer by CD spectroscopy. It is filed as nucleic-acid assay.
The test system of test [4] is Nucleic Acid. The test can be described thus: Selectivity for human bcl2 promoter G-quadruplex sequence over double stranded DNA by surface plasmon resonance spectroscopy. The class given is nucleic-acid assay.
The subject of test [5] is Nucleic Acid. The test can be described thus: Selectivity for human c-myc promoter G-quadruplex sequence over double stranded DNA by surface plasmon resonance spectroscopy. The class given is nucleic-acid assay.
Test [6] concerns Nucleic Acid. The test can be described thus: Induction of G-quadruplex stabilization in G4C oligonucleotide assessed as change in DNA melting temperature at [compound/G4C ratio = 3] in pH 7.4 10 mM Tris-HCl, 1 mM EDTA buffer by CD spectroscopy. It is filed as nucleic-acid assay.
In test [7] the test system is Nucleic Acid. The test can be described thus: Selectivity for human telomeric G-quadruplex sequence over double stranded DNA by surface plasmon resonance spectroscopy. It is filed as nucleic-acid assay.
Test [8] concerns Nucleic Acid. The test can be described thus: Induction of G-quadruplex stabilization in G4C oligonucleotide assessed as change in DNA melting temperature at [compound/G4C ratio = 2] in pH 7.4 10 mM Tris-HCl, 1 mM EDTA buffer by CD spectroscopy. It is filed as nucleic-acid assay.
Test [9] relates to Nucleic Acid. The test can be described thus: Induction of G-quadruplex stabilization in G4C oligonucleotide assessed as change in DNA melting temperature at [compound/G4C ratio = 1] in pH 7.4 10 mM Tris-HCl, 1 mM EDTA buffer by CD spectroscopy. The class given is nucleic-acid assay.
Test [10] has as its system Nucleic Acid. The test can be described thus: Binding affinity to human bcl2 promoter G-quadruplex sequence by surface plasmon resonance spectroscopy. The class given is nucleic-acid assay.
Test [11] deals with Nucleic Acid. The test can be described thus: Binding affinity to dsDNA by surface plasmon resonance spectroscopy. The class given is nucleic-acid assay.
Test [12] relates to Nucleic Acid. The test can be described thus: Binding affinity to human c-myc promoter G-quadruplex sequence by surface plasmon resonance spectroscopy. It is filed as nucleic-acid assay.
Test [13] deals with Nucleic Acid. The test can be described thus: Induction of G-quadruplex stabilization in HT4 oligonucleotide assessed as inhibition of DNA synthesis by Taq DNA polymerase stop assay.
Test [14] has as its system Nucleic Acid. The test can be described thus: Binding affinity to F21T G-quadruplex DNA at 2.5 uM in presence of competitor dsDNA by competitive FRET melting assay. The class given is nucleic-acid assay.
Test [15] relates to Nucleic Acid. The test can be described thus: Induction of structural transition from antiparallel to the mixed-type hybrid G-quadruplex structure in human telomeric sequence (T2AG3)4 by CD spectroscopy. It is filed as nucleic-acid assay.
Test [16] relates to Nucleic Acid. The test can be described thus: Induction of G-quadruplex stabilization in G4C oligonucleotide in pH 7.4 10 mM Tris-HCl, 1 mM EDTA buffer by CD spectroscopy. The class given is nucleic-acid assay.

As for `C[n+]1ccc(-c2c3nc(c(-c4cc[n+](C)cc4)c4ccc([nH]4)c(-c4cc[n+](C)cc4)c4ccc([nH]4)c(-c4cc[n+](C)cc4)c4nc2C=C4)C=C3)cc1`, the ΔTm in the test with Nucleic Acid [1] was determined as 11.2 °C; in the test with Nucleic Acid [3], 10 °C; in the test on Nucleic Acid [6] it was 9.6 °C; with Nucleic Acid [8] it was 7.5 °C; with Nucleic Acid [9] it was 4.2 °C. Moreover, the KA in the test on Nucleic Acid [2] is 4.65 ×10⁷ /M; in the test with Nucleic Acid [10], 3.09 ×10⁷ /M; in the test on Nucleic Acid [11], 3.62 ×10⁶ /M; in the test on Nucleic Acid [12], 1.01 ×10⁸ /M. Moreover, the values for the Selectivity ratio with Nucleic Acid [4], with Nucleic Acid [5] and with Nucleic Acid [7] were 9, 28 and 13, respectively.
Regarding `C1=C/C2=C(\c3ccc(C[n+]4ccccc4)cc3)c3c[nH]c(c3)/C(c3ccc(C[n+]4ccccc4)cc3)=C3/C=CC(=N3)/C(c3ccc(C[n+]4ccccc4)cc3)=c3/cc/c([nH]3)=C(\c3ccc(C[n+]4ccccc4)cc3)C1=N2`, the ΔTm with Nucleic Acid [1] was 9.2 °C; in the test on Nucleic Acid [3], 9.3 °C; in the test with Nucleic Acid [6], 8.3 °C; in the test with Nucleic Acid [8], 6.6 °C; in the test on Nucleic Acid [9], 3.8 °C. Further, the KA was 5.32 ×10⁶ /M in the test on Nucleic Acid [2], 1.42 ×10⁷ /M in the test with Nucleic Acid [10], 1.32 ×10⁵ /M in the test on Nucleic Acid [11] and 7.54 ×10⁶ /M in the test on Nucleic Acid [12]. In addition, the Activity entry with Nucleic Acid [13] is “Dose-dependent effect”. For the same compound, the outcome with Nucleic Acid [14] and with Nucleic Acid [15] was Active. In addition, the Selectivity ratio was 108 with Nucleic Acid [4], 57 with Nucleic Acid [5] and 40 in the test with Nucleic Acid [7].
As to `C1=Cc2nc1c(-c1ccc(C[n+]3ccccc3)cc1)c1nc(c(-c3ccc(C[n+]4ccccc4)cc3)c3ccc([nH]3)c(-c3ccc(C[n+]4ccccc4)cc3)c3ccc([nH]3)c2-c2ccc(C[n+]3ccccc3)cc2)C=C1`, the ΔTm came to 6.5 °C in the test with Nucleic Acid [1]; 7.6 °C in the test with Nucleic Acid [3]; 5 °C in the test on Nucleic Acid [6]; 3.3 °C in the test on Nucleic Acid [8]; 2.2 °C in the test with Nucleic Acid [9]. Further, the KA in the test with Nucleic Acid [2] was determined as 2.37 ×10⁷ /M; in the test with Nucleic Acid [10], 1.74 ×10⁷ /M; in the test on Nucleic Acid [11], 6.85 ×10⁵ /M; with Nucleic Acid [12], 5.82 ×10⁷ /M. Also, the Selectivity ratio in the test with Nucleic Acid [4] came to 25; in the test on Nucleic Acid [5], 85; with Nucleic Acid [7] it was 34. In addition, the outcome in the test on Nucleic Acid [16] was Active.

(Values after ChEMBL document CHEMBL1156832, “Cationic N-confused porphyrin derivative as a better molecule scaffold for G-quadruplex recognition” (Bioorg Med Chem, 2010).)
